# Where two headings read alike, the source gives them in different places. Numbered stars: 1 amine (or outer) side, 2 acyl side, 3 side chain; on linkers, the order of the positions; unused ones are H or OH. Bridge positions count the residues as written; N and C are the ends. Square brackets hold non-standard residues; d marks the D form. Peptide text beside a SMILES is read from it. * marks the point of attachment. Trp(βS-Me,7-OMe) = COc1cccc2c([C@H](C)[C@H](N)C(=O)O)c[nH]c12; Phe(4-CH2CH2COOH) = N[C@@H](Cc1ccc(CCC(=O)O)cc1)C(=O)O; Phe(4-SO2NH2) = N[C@@H](Cc1ccc(S(N)(=O)=O)cc1)C(=O)O; Phe(2-F,4-COOH) = N[C@@H](Cc1ccc(C(=O)O)cc1F)C(=O)O; Trp(7-CN) = N#Cc1cccc2c(C[C@H](N)C(=O)O)c[nH]c12; Trp(7-Cl) = N[C@@H](Cc1c[nH]c2c(Cl)cccc12)C(=O)O; Phe(4-CONH2) = NC(=O)c1ccc(C[C@H](N)C(=O)O)cc1; Phe(4-COOH) = N[C@@H](Cc1ccc(C(=O)O)cc1)C(=O)O; Trp(7-aza) = N[C@@H](Cc1c[nH]c2ncccc12)C(=O)O; Phe(4-CH2NH2) = NCc1ccc(C[C@H](N)C(=O)O)cc1; Pip(5R-OH) = O=C(O)[C@@H]1CC[C@@H](O)CN1; X1 = O=C([C@@H]1CC[C@H](N[*:1])C1)[*:2]; 4Pal = N[C@@H](Cc1ccncc1)C(=O)O; NMeE = CN[C@@H](CCC(=O)O)C(=O)O; dHyp = O=C(O)[C@H]1C[C@H](O)CN1; NEtAla = CCN[C@@H](C)C(=O)O; αMeS = C[C@](N)(CO)C(=O)O; Carboxymethyl = O=C(O)C*; Nle = CCCC[C@H](N)C(=O)O; Sar = CNCC(=O)O
# Key:
# [1] = target: T1, human soluble TNFR1 (sTNFR1) (Homo sapiens, UniProt P19438); experiment: Human sTNFR1-peptide displacement assay (LanthaScreen Eu TR-FRET binding assay)
# T1 construct: made in house; host or cells: Sf21 (baculovirus)
# T1 sequence (P19438 with tags, fused parts or gaps): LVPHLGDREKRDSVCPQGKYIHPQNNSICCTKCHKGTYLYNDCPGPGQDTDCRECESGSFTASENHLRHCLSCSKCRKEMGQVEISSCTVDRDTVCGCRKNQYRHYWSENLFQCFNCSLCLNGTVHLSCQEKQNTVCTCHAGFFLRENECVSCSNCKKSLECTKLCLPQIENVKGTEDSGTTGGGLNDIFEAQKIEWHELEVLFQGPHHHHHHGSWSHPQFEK
# Method in brief: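 Readout is the 665/615 nm TR-FRET ratio (Eu anti-His donor, streptavidin-Alexa647 acceptor), normalized to DMSO and saturating displacer, fit by Morrison-based five-parameter logistic for Kd^app. His-tagged sTNFR1 (1-211) prebound to 100 nM biotinylated peptide SEQ ID NO.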
# [2] = target: T2, TNFα-induced NF-κB signal transduction pathway (TNFR1 signaling) in THP-1 cells (Homo sapiens, UniProt P19438); experiment: THP-1 Lucia NF-κB reporter cell assay, inhibition of TNFα-induced NF-κB signaling; type: cell-based; details: THP-1 NF-κB Lucia reporter cells, 10 ng/mL TNFα, 16-18 h, secreted luciferase; read-out: THP-1 IC50
# T2 sequence (P19438 30-455): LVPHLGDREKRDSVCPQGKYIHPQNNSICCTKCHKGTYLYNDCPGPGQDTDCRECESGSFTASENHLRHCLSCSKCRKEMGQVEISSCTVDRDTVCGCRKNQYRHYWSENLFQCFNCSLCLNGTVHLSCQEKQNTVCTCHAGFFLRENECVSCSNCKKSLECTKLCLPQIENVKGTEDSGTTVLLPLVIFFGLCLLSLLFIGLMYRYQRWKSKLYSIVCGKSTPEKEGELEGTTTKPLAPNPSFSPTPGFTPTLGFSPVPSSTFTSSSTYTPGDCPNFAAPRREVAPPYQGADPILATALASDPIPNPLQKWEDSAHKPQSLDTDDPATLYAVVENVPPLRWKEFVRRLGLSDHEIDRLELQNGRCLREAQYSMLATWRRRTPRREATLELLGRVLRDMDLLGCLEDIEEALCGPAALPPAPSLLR
# Method in brief: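 Read-out: secreted Lucia luciferase luminescence (QUANTI-Luc) from supernatant after 16-18 h, 37 °C, 10 ng/mL rhTNFα. Peptide pretreatment 1 h at 37 °C; 20,000 cells/well, selection antibiotics omitted. IC50 via 4-parameter logistic model against min/max controls.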
# [3] = displacement of biotinylated peptide SEQ ID NO. 1 from sTNFR1, 20 point titration, 5-parameter fit based on Morrison equation (tight binding), read-out: TR-FRET Kd^app
SMILES,"Kd [1, 3] [pM]",IC50 [2] [pM],Kd [1] [pM]
"CCCC[C@@H]1NC(=O)[C@@H]2CC[C@@H](C2)NC(=O)[C@H]([C@@H](C)c2c[nH]c3c(OC)cccc23)NC(=O)CN(C)C(=O)[C@H](Cc2ccc(CCC(=O)O)cc2)NC(=O)[C@H](Cc2ccc(S(N)(=O)=O)cc2)NC(=O)[C@](C)(CO)NC(=O)[C@H](Cc2c[nH]c3c(C#N)cccc23)NC(=O)[C@H](Cc2ccc(OCC(=O)O)cc2)NC(=O)[C@H](CC(N)=O)NC(=O)[C@H]2C[C@H](O)CN2C(=O)[C@H](Cc2c[nH]c3ncccc23)NC(=O)[C@@H]2CC[C@@H](O)CN2C(=O)[C@H](Cc2ccncc2)NC1=O [SEQ ID NO. 30] (cyclo([4Pal][Pip(5R-OH)][Trp(7-aza)][dHyp]NY(Carboxymethyl)[Trp(7-CN)][αMeS][Phe(4-SO2NH2)][Phe(4-CH2CH2COOH)][Sar][Trp(βS-Me,7-OMe)][X1][Nle]))",70,500,–
"CCCC[C@@H]1NC(=O)CSC[C@@H](C(N)=O)NC(=O)[C@H]([C@@H](C)c2c[nH]c3c(OC)cccc23)NC(=O)CN(C)C(=O)[C@H](Cc2ccc(O)cc2)NC(=O)[C@H](Cc2ccc(C(=O)O)cc2)NC(=O)[C@](C)(CO)NC(=O)[C@H](Cc2c[nH]c3c(Cl)cccc23)NC(=O)[C@H](Cc2ccncc2)NC(=O)[C@H](CC(N)=O)NC(=O)[C@H](CCC(=O)O)N(C)C(=O)[C@H](Cc2c[nH]c3ncccc23)NC(=O)[C@H](C)N(CC)C(=O)[C@H](Cc2ccncc2)NC1=O [SEQ ID NO. 38] ({CH2CO}-[Nle][4Pal][NEtAla][Trp(7-aza)][NMeE]N[4Pal][Trp(7-Cl)][αMeS][Phe(4-COOH)]Y[Sar][Trp(βS-Me,7-OMe)]C-NH2; thioether N-14)",–,3100,700
"CCCC[C@@H]1NC(=O)[C@@H]2CC[C@@H](C2)NC(=O)[C@H]([C@@H](C)c2c[nH]c3c(OC)cccc23)NC(=O)CN(C)C(=O)[C@H](Cc2ccc(C(=O)O)cc2F)NC(=O)[C@H](Cc2ccc(C(N)=O)cc2)NC(=O)[C@](C)(CO)NC(=O)[C@H](Cc2c[nH]c3c(Cl)cccc23)NC(=O)[C@H](Cc2ccc(C(=O)O)cc2F)NC(=O)[C@H](CC(N)=O)NC(=O)[C@H]2C[C@H](O)CN2C(=O)[C@H](Cc2c[nH]c3ccccc23)NC(=O)[C@@H]2CC[C@@H](O)CN2C(=O)[C@H](Cc2ccncc2)NC1=O [SEQ ID NO. 41] (cyclo([4Pal][Pip(5R-OH)]W[dHyp]N[Phe(2-F,4-COOH)][Trp(7-Cl)][αMeS][Phe(4-CONH2)][Phe(2-F,4-COOH)][Sar][Trp(βS-Me,7-OMe)][X1][Nle]))",–,600,70
"CCCC[C@@H]1NC(=O)[C@@H]2CC[C@@H](C2)NC(=O)[C@H]([C@@H](C)c2c[nH]c3c(OC)cccc23)NC(=O)CN(C)C(=O)[C@H](Cc2ccc(C(N)=O)cc2)NC(=O)[C@H](Cc2ccc(C(N)=O)cc2)NC(=O)[C@](C)(CO)NC(=O)[C@H](Cc2c[nH]c3c(C#N)cccc23)NC(=O)[C@H](Cc2ccc(C(=O)O)cc2)NC(=O)[C@H](CC(N)=O)NC(=O)[C@H]2C[C@H](O)CN2C(=O)[C@H](Cc2c[nH]c3ccccc23)NC(=O)[C@@H]2CC[C@@H](O)CN2C(=O)[C@H](Cc2ccncc2)NC1=O [SEQ ID NO. 45] (cyclo([4Pal][Pip(5R-OH)]W[dHyp]N[Phe(4-COOH)][Trp(7-CN)][αMeS][Phe(4-CONH2)][Phe(4-CONH2)][Sar][Trp(βS-Me,7-OMe)][X1][Nle]))",50,600,–
"CCCC[C@@H]1NC(=O)[C@@H]2CC[C@@H](C2)NC(=O)[C@H]([C@@H](C)c2c[nH]c3c(OC)cccc23)NC(=O)CN(C)C(=O)[C@H](Cc2ccc(CN)cc2)NC(=O)[C@H](Cc2ccc(C(N)=O)cc2)NC(=O)[C@](C)(CO)NC(=O)[C@H](Cc2c[nH]c3c(C#N)cccc23)NC(=O)[C@H](Cc2ccc(C(=O)O)cc2)NC(=O)[C@H](CC(N)=O)NC(=O)[C@H]2C[C@H](O)CN2C(=O)[C@H](Cc2c[nH]c3ccccc23)NC(=O)[C@@H]2CC[C@@H](O)CN2C(=O)[C@H](Cc2ccncc2)NC1=O [SEQ ID NO. 48] (cyclo([4Pal][Pip(5R-OH)]W[dHyp]N[Phe(4-COOH)][Trp(7-CN)][αMeS][Phe(4-CONH2)][Phe(4-CH2NH2)][Sar][Trp(βS-Me,7-OMe)][X1][Nle]))",150,700,–
